Earlier results as cited in patent US20230218659A1, “Selenium-Based Compositions and Therapeutic Methods” (Hess Pharmaceuticals, Inc, priority 2020, published 2023).

Conditions: 200 µg/day selenium with or without 400 IU/day vitamin E; 35,533 men aged 50 years or older; after 5.5 years

Question: Which “association between prostate cancer risk and supplementation” value does the source give for [Se] [selenium] here?
Answer: The value was “no association”.
